# Data reported in patent US9409952B2, “Peptide-compound cyclization method” (Chugai Seiyaku Kabushiki Kaisha, priority 2011, dated 2016).
# Where two headings read alike, the source gives them in different places. Starred links: 1 amine or outer side, 2 acyl side, 3 side chain; linkers in the order of their positions; H or OH if unused. Positions of bridges follow the written chain, without caps; N, C: chain ends. Non-standard residues stand in square brackets, D forms with d. Residues, ends and D or L forms follow the SMILES beside them. *: point of attachment. Phe(3-(CH2)4CO) = O=C([C@H](Cc1cccc(CCCCC(=O)[*:3])c1)N[*:1])[*:2]; hhPhe = N[C@@H](CCCc1ccccc1)C(=O)O; NMeF = CN[C@@H](Cc1ccccc1)C(=O)O; NMeI = CC[C@H](C)[C@H](NC)C(=O)O; NMeβAla = CN(CCC(=O)[*:2])[*:1]; NMeL = CN[C@@H](CC(C)C)C(=O)O; NMeV = CN[C@H](C(=O)O)C(C)C; NMeA = CN[C@@H](C)C(=O)O; Piperidide = C1CCN(*)CC1; dNMeA = CN[C@H](C)C(=O)O; Sar = CNCC(=O)O
# Key:
# [1] = Metabolic stability in human hepatic microsome; type: in vitro ADME; conditions: microsomes, pH 7.4; human hepatic microsome, NADPH(+); read-out: CL NADPH(+)
# [2] = PAMPA (parallel artificial membrane permeability assay); type: in vitro ADME; conditions: PAMPA
# Procedure, shortened: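 Artificial membrane was 10% (w/v) egg lecithin plus 0.5% (w/v) cholesterol in dodecane on a PVDF filter. A 10 mM DMSO stock was added at 0.5% (v/v) to donor buffer (50 mM MOPSO, pH 6.5, 5.0% glycocholic acid). After 18 h at 37 °C, LC/MS or LC/UV gave donor and acceptor levels for Pe.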
# [3] = membrane permeation rate (Pe), 50 mM MOPSO buffer pH 6.5 with 5.0% glycocholic acid, 37° C., 18 hours, read-out: iPAMPA Pe
smiles,measurement,setting,value
CC(C)C[C@@H]1NC(=O)[C@H](Cc2ccccc2)N(C)C(=O)[C@H](C(C)C)N(C)C(=O)CN(C)C(=O)[C@H]([C@@H](C)O)NC(=O)[C@H](Cc2ccccc2)N(C)C(=O)[C@H](CC(C)C)N(C)C(=O)[C@H](CC(C)C)N(C)C(=O)[C@H](C)NC(=O)[C@@H](C(C)C)NC(=O)C[C@@H](C(=O)N(C)[C@@H](Cc2ccccc2)C(=O)N[C@@H](C)C(=O)N2CCCCC2)NC1=O [DP-484] ([dV]A[NMeL][NMeL][NMeF]T[Sar][NMeV][NMeF]LD[NMeF]A-Piperidide; lactam N-11),microsomal CLint at 1 uM,[1],29 µL/min/mg
same,"Papp at 18 hours, 50 µM",[2]; [3],13 ×10⁻⁶ cm/s
CC[C@H](C)[C@@H]1NC(=O)[C@H](CC(C)C)N(C)C(=O)[C@H](Cc2ccccc2)N(C)C(=O)CN(C)C(=O)[C@H](C)N(C)C(=O)[C@H](Cc2ccccc2)N(C)C(=O)[C@H](C)N(C)C(=O)[C@H]([C@@H](C)O)NC(=O)[C@H](C(C)C)N(C)C(=O)CCN(C)C(=O)C[C@@H](C(=O)N2CCCCC2)NC1=O [DP-516] ([NMeβAla][NMeV]T[NMeA][NMeF][NMeA][Sar][NMeF][NMeL]ID-Piperidide; lactam N-11),microsomal CLint at 1 uM,[1],19 µL/min/mg
same,"Papp at 18 hours, 50 µM",[2]; [3],9.1 ×10⁻⁶ cm/s
CC(C)C[C@@H]1NC(=O)CN(C)C(=O)[C@H](CC(C)C)N(C)C(=O)[C@H]([C@@H](C)O)NC(=O)[C@H](CC(C)C)N(C)C(=O)[C@H](Cc2ccccc2)N(C)C(=O)[C@H](C(C)C)NC(=O)C[C@@H](C(=O)N2CCCCC2)NC1=O [DP-691] (V[NMeF][NMeL]T[NMeL][Sar]LD-Piperidide; lactam N-8),microsomal CLint at 1 uM,[1],326 µL/min/mg
same,"Papp at 18 hours, 50 µM",[2]; [3],33 ×10⁻⁶ cm/s
CC(C)C[C@@H]1NC(=O)[C@H](C(C)C)N(C)C(=O)[C@H](CCCc2ccccc2)NC(=O)CN(C)C(=O)[C@H]([C@@H](C)O)NC(=O)[C@H](C)N(C)C(=O)[C@H](CC(C)C)N(C)C(=O)[C@@H](C(C)C)NC(=O)C[C@@H](C(=O)N2CCCCC2)NC(=O)[C@H](C)NC(=O)[C@H](CC(C)C)N(C)C1=O [DP-737] ([dV][NMeL][NMeA]T[Sar][hhPhe][NMeV]L[NMeL]AD-Piperidide; lactam N-11),microsomal CLint at 1 uM,[1],45 µL/min/mg
same,"Papp at 18 hours, 50 µM",[2]; [3],30 ×10⁻⁶ cm/s
CC[C@H](C)[C@H]1C(=O)N(C)[C@@H](C)C(=O)N(C)[C@@H](Cc2ccccc2)C(=O)N[C@@H]([C@@H](C)O)C(=O)N(C)[C@@H](Cc2ccccc2)C(=O)N(C)[C@@H](CC(C)C)C(=O)N2CCC[C@H]2C(=O)N[C@H](C(=O)N2CCCCC2)CC(=O)N[C@@H](C)C(=O)NCC(=O)N(C)[C@@H](CC(C)C)C(=O)N1C [DP-16] (AG[NMeL][NMeI][NMeA][NMeF]T[NMeF][NMeL]PD-Piperidide; lactam N-11),microsomal CLint at 1 uM,[1],74 µL/min/mg
same,"Papp at 18 hours, 50 µM",[2]; pH 6.5,30 ×10⁻⁶ cm/s
CC[C@H](C)[C@@H]1NC(=O)CCCCc2cccc(c2)C[C@@H](C(=O)N2CCCCC2)NC(=O)[C@H](Cc2ccccc2)N(C)C(=O)[C@H](CC(C)C)N(C)C(=O)CN(C)C(=O)[C@H]([C@@H](C)O)NC(=O)[C@H](C)N(C)C(=O)[C@H](C(C)C)N(C)C(=O)[C@H](C)NC(=O)[C@H](CC(C)C)N(C)C(=O)[C@H](Cc2ccccc2)N(C)C1=O [DP-886] (I[NMeF][NMeL]A[NMeV][NMeA]T[Sar][NMeL][NMeF][Phe(3-(CH2)4CO)]-Piperidide; lactam N-11),microsomal CLint at 1 uM,[1],162 µL/min/mg
same,"Papp at 18 hours, 50 µM",[2]; [3],22 ×10⁻⁶ cm/s
CC[C@H](C)[C@@H]1NC(=O)[C@H](C(C)C)N(C)C(=O)[C@H](C)N(C)C(=O)[C@H]([C@@H](C)O)NC(=O)[C@H](CC(C)C)N(C)C(=O)[C@H](Cc2ccccc2)NC(=O)[C@H](CC(C)C)N(C)C(=O)[C@@H](C)N(C)C(=O)C[C@@H](C(=O)N2CCCCC2)NC(=O)[C@H](C)NC(=O)[C@H](CC(C)C)N(C)C1=O [DP-417] ([dNMeA][NMeL]F[NMeL]T[NMeA][NMeV]I[NMeL]AD-Piperidide; lactam N-11),microsomal CLint at 1 uM,[1],113 µL/min/mg
same,"Papp at 18 hours, 50 µM",[2]; [3],43 ×10⁻⁶ cm/s
